{"source": "patent US20220040255A1", "about": "“CHEMOTHERAPEUTIC REMODELING OF THE GUT MICROBIOME” (THE SCRIPPS RESEARCH INSTITUTE, priority 2018, published 2022)"}
{"system": "gut microbiota from cecum of LDLr−/− mice", "assay": "in vitro en masse screening assay (cecum culture, 16S rRNA sequencing)", "assay_type": "cell-based", "settings": "Chm- 2 μg", "protocol": "(§1) We have established the following in vitro compound screening protocol for en masse gut microbiome remodeling. We obtain fresh gut microbiome content from LDLr^-/- mice conditioned for at least two weeks on WD by surgically removing cecum under anaerobic conditions. These samples are then mixed with growth media, distributed in 96-well plates, and incubated overnight in the presence of the test peptides. The activity and selectivity of each peptide for remodeling the gut microbiota community was assessed en masse by 16S rRNA sequencing of each well. A number of challenges had to be addressed in developing this protocol, including inoculum handling, choice of growth media, assay duration, etc. Our current assay culture condition maintains 50 bacterial genera (overnight culture), which is fairly representative of the 67 genera found in the uncultured community (Table 2). We used a distance scoring algorithm for a more refined compound selection, in which peptides that remodel the microbiota community most completely from the dysfunctional state (WD fed) toward the functional state (CHD fed) are scored higher. Briefly, we first eliminate cyclic D,L-α-peptides that have broad-spectrum antibacterial activity (inhibit >95% of growth of ≥25% of species in the community). The remaining compounds are then ranked based on how well they suppressed the bacterial species that grew in abundance in WD-fed mice. […] Among these, 40 genera decreased while 14 genera increased in abundance by WD feeding. Within the increased 11 genera, there were 19 bacterial species that were also present in our in vitro culture system. Accordingly, compounds were scored highly when they reduced the levels of 19 bacterial species (lowest summed differences in relative abundance) that were increased by WD feeding to be more similar to their levels in a CHD-fed microbiome (see Table 3 for peptide ranking). Based on these analyses, we chose two peptides for further in vivo validation and efficacy studies: the cationic peptide 1, […] NO:1), and the neutral peptide 11, […] NO:11), which ranked high within their respective peptide clusters. In vitro cecum culture and peptide screening. We screened a number of parameters to optimize the in vitro culture condition for maximal bacterial diversity in liquid culture, including a survey of several different growth media, dilution factors for plate inoculation, and incubation times; further details of the development of this in vitro screen will be reported elsewhere. Female LDLr^-/- mice (8-10 weeks of age) were fed a WD for two weeks. Cecum harvest and all assay steps were performed under anaerobic conditions (Coy Laboratory anaerobic chamber). Cecum contents from three mice were pooled for the assay to provide enough material and to minimize the individual variation in gut microbiome. Cecum contents were suspended in PBS (1.5 ml PBS per 100 mg of cecum content). The mixture was vortexed for 5 min and the supernatant was transferred to a new tube. The cecum content mixture was further diluted in Chopped Meat Carbohydrate Broth (BD 297307) for in vitro peptide screening. […] The concentration of peptide stock in DMSO was calculated based on A280 measurement. For each peptide, an initial 20 mM stock was made in DMSO and diluted to 1 mM in 10% sucrose. From that, a 0.64 mM peptide dilution in 10% sucrose was prepared, and each peptide was further diluted into the assay for peptide screening at two concentrations (64 μM and 16 μM). Bacterial DNA was harvested after 24-hour peptide treatment and isolated with Microbial DNA isolation kit (Mo Bio) following the manufacturer's instructions. 16S rRNA gene sequencing and processing. PCR amplicons of the V3-V4 16S rRNA region were amplified and sequenced using an Illumina MiSeq platform. […]"}
{"compound": "O=C(N[C@H](CO)[C@H](O)c1ccc([N+](=O)[O-])cc1)C(Cl)Cl", "note": "[Chm, chloramphenicol, reference compound]", "ranked distance to chow": 4}
{"system": "gut microbiota from cecum of LDLr−/− mice", "assay": "in vitro en masse screening assay (cecum culture, 16S rRNA sequencing)", "assay_type": "cell-based", "settings": "Chm- 8 μg", "protocol": "as §1"}
{"compound": "O=C(N[C@H](CO)[C@H](O)c1ccc([N+](=O)[O-])cc1)C(Cl)Cl", "note": "[Chm, chloramphenicol, reference compound]", "ranked distance to chow": 24}
{"system": "gut microbiota from cecum of LDLr−/− mice", "assay": "in vitro en masse screening assay (cecum culture, 16S rRNA sequencing)", "assay_type": "cell-based", "settings": "ranking in remodeling WD gut microbiota toward CHD microbiota composition", "protocol": "as §1"}
{"compound": "c[wFkSkSkS]", "ranked distance to chow": 19}
{"compound": "c[wLeLwKsK]", "ranked distance to chow": 9}
{"compound": "c[WwQoHdKt]", "ranked distance to chow": 15}
{"compound": "c[LlWhQk]", "ranked distance to chow": 5}
{"compound": "c[wLlWkKkS]", "ranked distance to chow": 10}
{"compound": "c[YwElYsKq]", "ranked distance to chow": 17}
{"compound": "c[YlYlYkSo]", "ranked distance to chow": 13}
{"compound": "c[wLlEeKkN]", "ranked distance to chow": 21}
{"compound": "c[wWwKsKsK]", "ranked distance to chow": 12}
{"compound": "c[lFlAlKhK]", "ranked distance to chow": 8}
{"compound": "c[WlWlWkSk]", "ranked distance to chow": 1}
{"compound": "c[WlLlKkKs] [WllLlKkKs]", "ranked distance to chow": 20}
{"compound": "c[lLwHoK]", "ranked distance to chow": 7}
{"compound": "c[fWwYqHhQ]", "ranked distance to chow": 25}
{"compound": "c[WwLlHsKk", "ranked distance to chow": 3}
{"compound": "c[YlWyKhAe]", "ranked distance to chow": 23}
{"compound": "c[wLwSeQeO] [wLwSeQsO]", "ranked distance to chow": 16}
{"compound": "c[wLfKwKkK]", "ranked distance to chow": 6}
{"compound": "c[wLhLwKrK]", "ranked distance to chow": 11}
{"compound": "c[wLwSeQhK]", "ranked distance to chow": 22}
{"compound": "c[FwHlYoHq]", "ranked distance to chow": 18}
